This note sets out measurements from patent US12624018B1, “Inhibitors of RIPK2 and medical uses thereof” (Odyssey Therapeutics, Inc., priority 2022, dated 2026).

Broadly, the IC50 is the point on the concentration scale where inhibition reaches its midpoint.

Molecules are shown by their SMILES.

This assay deals with T1, RIPK2 enzyme (Homo sapiens, UniProt O43353).
T1 construct: purchased Carna 09-128
T1 sequence (O43353 1-299 limits assumed): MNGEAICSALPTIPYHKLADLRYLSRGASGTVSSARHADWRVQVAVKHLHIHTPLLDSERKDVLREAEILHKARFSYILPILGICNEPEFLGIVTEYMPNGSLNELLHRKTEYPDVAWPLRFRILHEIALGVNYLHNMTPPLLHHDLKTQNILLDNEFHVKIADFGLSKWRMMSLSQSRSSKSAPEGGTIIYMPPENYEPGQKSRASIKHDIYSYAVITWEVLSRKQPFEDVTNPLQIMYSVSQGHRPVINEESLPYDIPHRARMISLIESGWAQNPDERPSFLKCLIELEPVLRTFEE
Briefly: RIPK2 inhibition (ADP-Glo Kinase Assay). To be noted: RIPK2 5 nM, ATP 150 μM, MBP substrate, read-out: RIPK2 IC50. Type of assay: biochemical. The method in brief:
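Swine MBP substrate; compound and 5 nM RIPK2 first mixed for 30 min at room temperature; buffer pH 7.5 HEPES 50 mM with 10 mM MgCl2, 2 mM DTT, 1 mM EGTA, Brij-35, BSA.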
Regarding `CC(C)(C)n1cc(NC(=O)Cc2ccc(Oc3ccnc4ccc(S(=N)(=O)C5CC5)cc34)cc2F)cn1` (centres unmarked) [Compound 72, N-(1-(tert-butyl)-1H-pyrazol-4-yl)-2-(4-((6-(cyclopropanesulf-onimidoyl)quinolin-4-yl)oxy)-2-fluorophenyl) acetamide], the IC50 was less than 2.5 nM.
Take `CCS(=N)(=O)c1ccc2nccc(Oc3ccc(CC(=O)Nc4cnn(C(C)(C)C)c4)c(F)c3)c2c1` (centres unmarked) [Compound 73, N-(1-(tert-butyl)-1H-pyrazol-4-yl)-2-(4-((6-(ethylsulfonimidoyl)quinolin-4-yl)oxy)-2-fluorophenyl) acetamide]: the IC50 is 3.2 nM.
Under `CCS(=O)(=NC)c1ccc2nccc(Oc3ccc(CC(=O)Nc4cnn(C(C)(C)C)c4)c(F)c3)c2c1` (centres unmarked) [Compound 74, N-(1-(tert-butyl)-1H-pyrazol-4-yl)-2-(2-fluoro-4-((6-(N-methylethylsulfonimidoyl)quinolin-4-yl)oxy)phenyl)acetamide] stands 4 nM; under `CC(C)(C)n1cc(NC(=O)Cc2ccc(Oc3ccnc4ccc(CS(C)(=O)=O)cc34)cc2F)cn1` [Compound 75, N-(1-(tert-butyl)-1H-pyrazol-4-yl)-2-(2-fluoro-4-((6-((methylsulfonyl)methyl)quinolin-4-yl)oxy)phenyl)acetamide], less than 2.5 nM; under `Cc1cc(CC(=O)Nc2cnn(C(C)(C)C)c2)ccc1Oc1ccnc2ccc(S(C)(=N)=O)cc12` (centres unmarked) [Compound 76, N-(1-(tert-butyl)-1H-pyrazol-4-yl)-2-(3-methyl-4-((6-(S-methylsulfonimidoyl)quinolin-4-yl)oxy)phenyl) acetamide], less than 2.5 nM.
Under `CN=S(C)(=O)c1ccc2nccc(Oc3ccc(CC(=O)Nc4cnn(C(C)(C)C)c4)cc3C)c2c1` (centres unmarked) [Compound 77, N-(1-(tert-butyl)-1H-pyrazol-4-yl)-2-(4-((6-(N,S-dimethylsulfonimidoyl)quinolin-4-yl)oxy)-3-methylphenyl)acetamide] stands less than 2.5 nM; under `CN1CCC(Oc2ccc3nccc(Oc4ccc(CC(=O)Nc5cnn(C(C)(C)C)c5)c(F)c4)c3c2)CC1` [Compound 79, N-(1-(tert-butyl)-1H-pyrazol-4-yl)-2-(2-fluoro-4-((6-((1-methyl-piperidin-4-yl)oxy)quinolin-4-yl)oxy)phenyl) acetamide], less than 2.5 nM.
For `CC(C)(C)n1cc(NC(=O)Cc2ncc(Oc3ccnc4ccc(OC5CCNCC5)cc34)cc2F)cn1` [Compound 80, N-(1-(tert-butyl)-1H-pyrazol-4-yl)-2-(3-fluoro-5-((6-(piperidin-4-yloxy)quinolin-4-yl)oxy)pyridin-2-yl)acetamide], the IC50 was found to be 3.5 nM.
Under `CC(C)(C)n1cc(NC(=O)Cc2ccc(Oc3ccnc4ccc(OC5CCNCC5)cc34)cc2F)cn1` [Compound 81, N-(1-(tert-butyl)-1H-pyrazol-4-yl)-2-(2-fluoro-4-((6-(piperidin-4-yloxy)quinolin-4-yl)oxy)phenyl) acetamide] stands less than 2.5 nM.
Regarding `Cc1cc(CC(=O)Nc2cnn(C(C)(C)C)c2)ccc1Oc1ncnc2ccc(OC3CCNCC3)cc12` [Compound 85, N-(1-(tert-butyl)-1H-pyrazol-4-yl)-2-(3-methyl-4-((6-(piperidin-4-yloxy)quinazolin-4-yl)oxy)phenyl) acetamide], the half-maximal inhibitory concentration (IC50) stood at 5.1 nM.
Under `Cc1cc(CC(=O)Nc2cc(C(C)(C)C)n[nH]2)ccc1Oc1ccnc2ccc(S(C)(=O)=O)cc12` [Compound 87, N-(5-(tert-butyl)-1H-pyrazol-3-yl)-2-(3-methyl-4-((6-(methylsulfonyl)quinolin-4-yl)oxy)phenyl)acetamide] stands less than 2.5 nM.
Then `Cc1cc(CC(=O)Nc2cc(C(C)(C)C)n[nH]2)ccc1Oc1ccnc2ccc(S(C)(=N)=O)cc12` (centres unmarked) [Compound 88, N-(5-(tert-butyl)-1H-pyrazol-3-yl)-2-(3-methyl-4-((6-(S-methylsulfonimidoyl)quinolin-4-yl)oxy)phenyl)acetamide], with less than 2.5 nM; and `CC(C)(C)n1cc(NC(=O)Cc2ccc(Oc3ccnc4ccc(S(C)(=O)=O)cc34)c(Cl)c2)cn1` [Compound 89, N-(1-(tert-butyl)-1H-pyrazol-4-yl)-2-(3-chloro-4-((6-(methylsulfonyl)quinolin-4-yl)oxy)phenyl)acetamide], with less than 2.5 nM; and `CC(C)(C)n1cc(NC(=O)Cc2ccc(Oc3ccnc4ccc(S(C)(=N)=O)cc34)c(Cl)c2)cn1` (centres unmarked) [Compound 90, N-(1-(tert-butyl)-1H-pyrazol-4-yl)-2-(3-chloro-4-((6-(S-methylsulfonimidoyl)quinolin-4-yl)oxy)phenyl)acetamide], with 2.9 nM.
Then `[2H]C([2H])([2H])c1cc(CC(=O)Nc2cnn(C(C)(C)C)c2)ccc1Oc1ccnc2ccc(S(C)(=O)=O)cc12` [Compound 93, N-(1-(tert-butyl)-1H-pyrazol-4-yl)-2-(3-(methyl-d3)-4-((6-(methylsulfonyl)quinolin-4-yl)oxy)phenyl)acetamide], with less than 2.5 nM; and `CCN1CCC(Oc2ccc3nccc(Oc4ccc(CC(=O)Nc5cnn(C(C)(C)C)c5)cc4C)c3c2)CC1` [Compound 94, N-(1-(tert-butyl)-1H-pyrazol-4-yl)-2-(4-((6-((1-ethylpiperidin-4-yl)oxy)quinolin-4-yl)oxy)-3-methylphenyl) acetamide], with less than 2.5 nM.
On to `Cc1cc(CC(=O)Nc2cnn(C(C)(C)C)c2)ccc1Oc1ccnc2ccc(OC3CCN(C4CC4)CC3)cc12` [Compound 95, N-(1-(tert-butyl)-1H-pyrazol-4-yl)-2-(4-((6-((1-cyclopropyl-piperidin-4-yl)oxy)quinolin-4-yl)oxy)-3-methylphenyl) acetamide], for which the half-maximal inhibitory concentration (IC50) was less than 2.5 nM.
Turning to `Cc1cc(CC(=O)Nc2cnn(C(C)(C)C)c2)ccc1Oc1ccnc2ccc(OC3CCN(C4COC4)CC3)cc12` [Compound 96, N-(1-(tert-butyl)-1H-pyrazol-4-yl)-2-(3-methyl-4-((6-((1-(oxetan-3-yl)piperidin-4-yl)oxy)quinolin-4-yl)oxy)phenyl) acetamide], the IC50 is less than 2.5 nM.
Then `Cc1cc(CC(=O)Nc2cnn(C(C)(C)C)c2)ccc1Oc1ccnc2ccc(S(=O)(=O)C3CCN(C)CC3)cc12` [Compound 97, N-(1-(tert-butyl)-1H-pyrazol-4-yl)-2-(3-methyl-4-((6-((1-methylpiperidin-4-yl)sulfonyl)quinolin-4-yl)oxy)phenyl)acetamide], with less than 2.5 nM.
Then `Cc1cc(CC(=O)Nc2cnn(C(C)(C)C)c2)ccc1Oc1ccnc2ccc(S(=O)(=O)C3CCOCC3)cc12` [Compound 98, N-(1-(tert-butyl)-1H-pyrazol-4-yl)-2-(3-methyl-4-((6-((tetrahydro-2H-pyran-4-yl)sulfonyl)quinolin-4-yl)oxy)phenyl)acetamide], with less than 2.5 nM.
Under `Cc1cc(CC(=O)Nc2cnn(C(C)(C)C)c2)ccc1Oc1ccnc2ccc(S(=O)(=O)C3CC3)cc12` [Compound 100, N-(1-(tert-butyl)-1H-pyrazol-4-yl)-2-(4-((6-(cyclopropylsulfonyl)quinolin-4-yl)oxy)-3-methylphenyl)acetamide] stands less than 2.5 nM; under `Cc1cc(CC(=O)Nc2cnn(C(C)(C)C)c2)ccc1Oc1ccnc2ccc(S(=O)(=O)C3COC3)cc12` [Compound 101, N-(1-(tert-butyl)-1H-pyrazol-4-yl)-2-(3-methyl-4-((6-(oxetan-3-ylsulfonyl)quinolin-4-yl)oxy)phenyl)acetamide], less than 2.5 nM.
As for `Cc1c(Oc2ccnc3ccc(OC4CCNCC4)cc23)ccc(CC(=O)Nc2cnn(C(C)(C)C)c2)c1F` [Compound 102, N-(1-(tert-butyl)-1H-pyrazol-4-yl)-2-(2-fluoro-3-methyl-4-((6-(piperidin-4-yloxy)quinolin-4-yl)oxy)phenyl) acetamide], the IC50 was less than 2.5 nM.
`Cc1c(Oc2ccnc3ccc(OC4CCN(C)CC4)cc23)ccc(CC(=O)Nc2cnn(C(C)(C)C)c2)c1F` [Compound 103, N-(1-(tert-butyl)-1H-pyrazol-4-yl)-2-(2-fluoro-3-methyl-4-((6-((1-methylpiperidin-4-yl)oxy)quinolin-4-yl)oxy)phenyl)acetamide]: the IC50 is less than 2.5 nM.
`[2H]C([2H])([2H])c1cc(CC(=O)Nc2cnn(C(C)(C)C)c2)ccc1Oc1ccnc2ccc(OC3CCNCC3)cc12` [Compound 104, N-(1-(tert-butyl)-1H-pyrazol-4-yl)-2-(3-(methyl-d3)-4-((6-(piperidin-4-yloxy)quinolin-4-yl)oxy)phenyl) acetamide]: the concentration for half-maximal inhibition (IC50) was less than 2.5 nM.
As for `[2H]C([2H])([2H])c1cc(CC(=O)Nc2cnn(C(C)(C)C)c2)ccc1Oc1ccnc2ccc(OC3CCN(C)CC3)cc12` [Compound 105, N-(1-(tert-butyl)-1H-pyrazol-4-yl)-2-(3-(methyl-d3)-4-((6-((1-methyl-piperidin-4-yl)oxy)quinolin-4-yl)oxy)phenyl) acetamide], the IC50 was less than 2.5 nM.
For the compound `Cc1c(Oc2ncnc3ccc(OC4CCNCC4)cc23)ccc(CC(=O)Nc2cnn(C(C)(C)C)c2)c1F` [Compound 106, N-(1-(tert-butyl)-1H-pyrazol-4-yl)-2-(2-fluoro-3-methyl-4-((6-(piperidin-4-yloxy)quinazolin-4-yl)oxy)phenyl) acetamide], the IC50 was less than 2.5 nM.
Under `Cc1c(Oc2ncnc3ccc(OC4CCN(C)CC4)cc23)ccc(CC(=O)Nc2cnn(C(C)(C)C)c2)c1F` [Compound 107, N-(1-(tert-butyl)-1H-pyrazol-4-yl)-2-(2-fluoro-3-methyl-4-((6-((1-methyl-piperidin-4-yl)oxy)quinazolin-4-yl)oxy)phenyl) acetamide] stands less than 2.5 nM.
As to `CCN1CCC(Oc2ccc3nccc(Oc4cnc(CC(=O)Nc5cnn(C(C)(C)C)c5)c(F)c4)c3c2)CC1` [Compound 108, N-(1-(tert-butyl)-1H-pyrazol-4-yl)-2-(5-((6-((1-ethylpiperidin-4-yl)oxy)quinolin-4-yl)oxy)-3-fluoropyridin-2-yl)acetamide], the IC50 was 11.3 nM.
